Measurements published in PubChem BioAssay AID248 (DTP/NCI, 2004).
Several values for one entry are separate records, joined by “and”; a condition that tells them apart may be missing. Equal entries are not always repeated. Inconclusive results and toxic doses are left out. No stated cut-off is given here; in the data, active means T/C of 150% or more; inactive means T/C below 125%.

Test system: L1210 leukemia ip in BDF1 mice, survival T/C
Test: NCI In Vivo Anticancer Drug Screen. Data for tumor model L1210 Leukemia (intraperitoneal) in B6D2F1 (BDF1) mice
Details: endpoint: mean survival time, higher = longer survival
Outline: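 Tumor was transplanted into mice, which were then dosed with test compound or vehicle alone. Survival was recorded for each group, and the treated figure was expressed relative to the control figure.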

[1] = dose: 100.0 mg/kg/injection, schedule: Q01DX009 (ip), vehicle: saline with Tween-80
[2] = dose: 100.0 mg/kg/injection, schedule: Q04DX003 (ip), vehicle: saline with Tween-80
[3] = dose: 200.0 mg/kg/injection, schedule: Q04DX003 (ip), vehicle: saline with Tween-80
[4] = dose: 400.0 mg/kg/injection, schedule: Q04DX003 (ip), vehicle: saline with Tween-80
[5] = dose: 25.0 mg/kg/injection, schedule: Q01DX001 (ip), vehicle: Klucel (hydroxypropylcellulose) (HPC)
[6] = dose: 50.0 mg/kg/injection, schedule: Q01DX001 (ip), vehicle: Klucel (hydroxypropylcellulose) (HPC)
[7] = dose: 100.0 mg/kg/injection, schedule: Q01DX001 (ip), vehicle: Klucel (hydroxypropylcellulose) (HPC)
[8] = dose: 25.0 mg/kg/injection, schedule: Q01DX009 (ip), vehicle: Klucel (hydroxypropylcellulose) (HPC)
[9] = dose: 100.0 mg/kg/injection, schedule: Q01DX009 (ip), vehicle: Klucel (hydroxypropylcellulose) (HPC)
[10] = dose: 100.0 mg/kg/injection, schedule: Q04DX003 (ip), vehicle: Klucel (hydroxypropylcellulose) (HPC)
[11] = dose: 200.0 mg/kg/injection, schedule: Q04DX003 (ip), vehicle: Klucel (hydroxypropylcellulose) (HPC)
[12] = dose: 400.0 mg/kg/injection, schedule: Q04DX003 (ip), vehicle: Klucel (hydroxypropylcellulose) (HPC)
[13] = dose: 100.0 mg/kg/injection, schedule: Q04DX002 (ip), vehicle: saline with Tween-80
[14] = dose: 200.0 mg/kg/injection, schedule: Q04DX002 (ip), vehicle: saline with Tween-80
[15] = dose: 400.0 mg/kg/injection, schedule: Q04DX002 (ip), vehicle: saline with Tween-80
[16] = dose: 100.0 mg/kg/injection, schedule: Q04DX002 (ip), vehicle: Klucel (hydroxypropylcellulose) (HPC)
[17] = dose: 200.0 mg/kg/injection, schedule: Q04DX002 (ip), vehicle: Klucel (hydroxypropylcellulose) (HPC)
[18] = dose: 400.0 mg/kg/injection, schedule: Q04DX002 (ip), vehicle: Klucel (hydroxypropylcellulose) (HPC)
[19] = dose: 12.5 mg/kg/injection, schedule: Q01DX009 (ip), vehicle: saline
[20] = dose: 50.0 mg/kg/injection, schedule: Q01DX009 (ip), vehicle: Klucel (hydroxypropylcellulose) (HPC)
[21] = dose: 100.0 mg/kg/injection, schedule: Q01DX001 (ip), vehicle: carboxymethylcellulose (CMC)
[22] = dose: 200.0 mg/kg/injection, schedule: Q01DX001 (ip), vehicle: carboxymethylcellulose (CMC)
[23] = dose: 400.0 mg/kg/injection, schedule: Q01DX001 (ip), vehicle: carboxymethylcellulose (CMC)
[24] = dose: 100.0 mg/kg/injection, schedule: Q01DX005 (ip), vehicle: saline with Tween-80
[25] = dose: 200.0 mg/kg/injection, schedule: Q01DX005 (ip), vehicle: saline with Tween-80
[26] = dose: 400.0 mg/kg/injection, schedule: Q01DX005 (ip), vehicle: saline with Tween-80

Measured: T/C

CCOC(=O)/C(C#N)=C\c1cc(OC)ccc1OC
inactive: [1] 101 % of control | [2] 96 % of control | [3] 94 % of control | [4] 93 % of control

COc1ccc(OC)c(NC(=O)CI)c1
inactive: [5] 103 % of control | [6] 104 % of control | [7] 98 % of control

CC1CC(N2CSC(=S)N(C3CC(C)CC(C)(C)C3)C2)CC(C)(C)C1 (stereo not given)
inactive: [8] 93 % of control | [9] 86 % of control and 90 % of control | [10] 89 % of control | [11] 94 % of control | [12] 91 % of control

CO[CH2][Pb]([c]1ccccc1)([c]1ccccc1)[c]1ccccc1
inactive: [13] 98 % of control | [14] 94 % of control | [15] 94 % of control

CCc1c(N)nc(N)nc1Cl
inactive: dose: 25.0 mg/kg/injection, schedule: Q01DX Z (ip), vehicle: methylcellulose (MC) 91 % of control

Cc1c(C)c(C)c(CCl)c(CCl)c1C
inactive: [16] 97 % of control | [17] 90 % of control | [18] 122 % of control

CC(NC(=O)Oc1ccccc1)Oc1ccccc1 (stereo not given)
inactive: [2] 96 % of control | [3] 101 % of control | [4] 96 % of control

COC(=O)CCC1CCC(=O)C1 (stereo not given)
inactive: dose: 37.5 mg/kg/injection, schedule: Q04DX002 (ip), vehicle: saline with Tween-80 95 % of control | dose: 75.0 mg/kg/injection, schedule: Q04DX002 (ip), vehicle: saline with Tween-80 95 % of control | dose: 150.0 mg/kg/injection, schedule: Q04DX002 (ip), vehicle: saline with Tween-80 98 % of control | dose: 300.0 mg/kg/injection, schedule: Q04DX002 (ip), vehicle: saline with Tween-80 95 % of control

CCCCCCCCCCC1CCCCC1
inactive: dose: 50.0 mg/kg/injection, schedule: Q04DX002 (ip), vehicle: saline with Tween-80 91 % of control | [13] 91 % of control | [14] 98 % of control

C=CCc1cn(C2OC(COC(=O)c3ccccc3)C(OC(=O)c3ccccc3)C2OC(=O)c2ccccc2)c(=O)[nH]c1=O (stereo not given)
inactive: dose: 12.5 mg/kg/injection, schedule: Q01DX005 (ip), vehicle: saline 92 % of control | [19] 95 % of control | dose: 25.0 mg/kg/injection, schedule: Q01DX005 (ip), vehicle: saline 92 % of control | dose: 25.0 mg/kg/injection, schedule: Q01DX009 (ip), vehicle: saline 95 % of control | dose: 50.0 mg/kg/injection, schedule: Q01DX005 (ip), vehicle: saline 94 % of control | dose: 50.0 mg/kg/injection, schedule: Q01DX009 (ip), vehicle: saline 98 % of control

Cl[CH2][Sn]([c]1ccccc1)([c]1ccccc1)[c]1ccccc1
inactive: dose: 6.25 mg/kg/injection, schedule: Q01DX009 (ip), vehicle: saline with Tween-80 113 % of control | dose: 6.25 mg/kg/injection, schedule: Q01DX009 (ip), vehicle: saline 93 % of control | dose: 12.5 mg/kg/injection, schedule: Q01DX009 (ip), vehicle: saline with Tween-80 106 % of control | [19] 101 % of control | dose: 25.0 mg/kg/injection, schedule: Q01DX009 (ip), vehicle: saline with Tween-80 101 % of control

O=C(O)c1ccccc1Cc1ccccc1
inactive: [16] 94 % of control | [17] 98 % of control | [18] 100 % of control

CC1(C)CCCC(Br)C1=O (stereo not given)
inactive: [20] 97 % of control | [9] 104 % of control

O=NN(Cc1ccc(Cl)cc1)Nc1ncc[nH]1
inactive: [16] 101 % of control | [17] 96 % of control | [18] 93 % of control

NC(N)=N/N=C/C/C=N/N=C(N)N
inactive: dose: 15.0 mg/kg/injection, schedule: Q01DX Z (ip), vehicle: saline 97 % of control | dose: 30.0 mg/kg/injection, schedule: Q01DX Z (ip), vehicle: saline 100 % of control | dose: 60.0 mg/kg/injection, schedule: Q01DX Z (ip), vehicle: saline 96 % of control | dose: 120.0 mg/kg/injection, schedule: Q01DX Z (ip), vehicle: saline 100 % of control | dose: 120.0 mg/kg/injection, schedule: Q01DX Z (oral), vehicle: saline 102 % of control | dose: 240.0 mg/kg/injection, schedule: Q01DX Z (oral), vehicle: saline 102 % of control | dose: 480.0 mg/kg/injection, schedule: Q01DX Z (oral), vehicle: saline 107 % of control | dose: 960.0 mg/kg/injection, schedule: Q01DX Z (oral), vehicle: saline 103 % of control

CCOC(=O)NCCBr
inactive: [9] 102 % of control | [10] 101 % of control | dose: 200.0 mg/kg/injection, schedule: Q01DX009 (ip), vehicle: Klucel (hydroxypropylcellulose) (HPC) 102 % of control | [11] 106 % of control | dose: 400.0 mg/kg/injection, schedule: Q01DX009 (ip), vehicle: Klucel (hydroxypropylcellulose) (HPC) 100 % of control | [12] 94 % of control

Cc1ccc(NC(=O)NCCCO)cc1
inactive: dose: 50.0 mg/kg/injection, schedule: Q01DX001 (ip), vehicle: carboxymethylcellulose (CMC) 101 % of control | [21] 101 % of control | [22] 106 % of control | [23] 104 % of control

CC(C)=CCC(C#N)(CCN1CCCC1)c1cccc2ccccc12 (stereo not given)
inactive: dose: 12.5 mg/kg/injection, schedule: Q01DX009 (ip), vehicle: Klucel (hydroxypropylcellulose) (HPC) 100 % of control | [8] 118 % of control | [20] 105 % of control

CCN(CC)CCC(O)c1cc(-c2ccc(Cl)cc2)nc2ccc(OC)cc12 (stereo not given)
inactive: [21] 94 % of control | dose: 100.0 mg/kg/injection, schedule: Q04DX003 (ip), vehicle: carboxymethylcellulose (CMC) 104 % of control | [22] 92 % of control | dose: 200.0 mg/kg/injection, schedule: Q04DX003 (ip), vehicle: carboxymethylcellulose (CMC) 114 % of control | [23] 94 % of control | dose: 400.0 mg/kg/injection, schedule: Q04DX003 (ip), vehicle: carboxymethylcellulose (CMC) 110 % of control

CCCCNC(=O)Nc1cc(C)c(C)cc1C
inactive: dose: 25.0 mg/kg/injection, schedule: Q01DX009 (ip), vehicle: gum acacia 106 % of control | dose: 50.0 mg/kg/injection, schedule: Q01DX009 (ip), vehicle: gum acacia 96 % of control | dose: 100.0 mg/kg/injection, schedule: Q01DX009 (ip), vehicle: gum acacia 88 % of control | dose: 100.0 mg/kg/injection, schedule: Q04DX003 (ip), vehicle: gum acacia 91 % of control | dose: 200.0 mg/kg/injection, schedule: Q01DX009 (ip), vehicle: gum acacia 92 % of control | dose: 200.0 mg/kg/injection, schedule: Q04DX003 (ip), vehicle: gum acacia 96 % of control | dose: 400.0 mg/kg/injection, schedule: Q04DX003 (ip), vehicle: gum acacia 87 % of control

CC(C)(O)C1CC1
inactive: [24] 97 % of control | [1] 88 % of control | [13] 101 % of control | [25] 94 % of control | dose: 200.0 mg/kg/injection, schedule: Q01DX009 (ip), vehicle: saline with Tween-80 94 % of control | [14] 108 % of control | [26] 101 % of control | dose: 400.0 mg/kg/injection, schedule: Q01DX009 (ip), vehicle: saline with Tween-80 91 % of control | [15] 96 % of control

CCCC1C/C(=C\NC(N)=O)C(=O)O1 (stereo not given)
inactive: [24] 100 % of control | [2] 104 % of control | [25] 100 % of control | [3] 96 % of control | [26] 112 % of control | [4] 101 % of control

CCC(=O)OC1(c2ccccc2)CCN(C2CC2)CC1
inactive: [5] 92 % of control | [6] 97 % of control | [7] 100 % of control
